Assay results reported in patent publication US5849721A, “Sulfated polysaccharides obtained from heparin, preparation process, pharmaceutical composition and use thereof” (Rhone-Poulenc Rorer S.A., priority 1992, dated 1998).

System: bleeding time
Conditions: rat, in vivo, 2 mg/kg

increase in the bleeding time: 13
Substance: heparin
